# From patent US5593970A, “Heterocyclic anthracycline analogs” (priority 1994, dated 1997)
# Counter-ions that a name gives are not always drawn.
# Assays:
# [1] = system: BE-1; experiment: Soft agar colony formation disk diffusion assay; assay type: cell-based, human
# How it was run: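 Cells in 0.4% Noble agar top layer over 0.8% agar base; compound in DMSO/water applied on 6.5 mm filter disk. Incubated 37 °C, 5% CO2 for 10–20 days. Activity measured as inhibition zone from disk edge to nearest colonies (>50 cells), by ocular micrometer.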
# [2] = system: Leukemia; experiment: NCI assay, average per cancer type; conditions: for CC50: 48 h, read-out: Average LOG10 LC50; for GI50: read-out: Average LOG10 GI50
# [3] = system: NSC Lung; experiment: NCI assay, average per cancer type; conditions: Homo sapiens; for CC50: 48 h, read-out: Average LOG10 LC50; for GI50: read-out: Average LOG10 GI50
# [4] = system: SC Lung; experiment: NCI assay, average per cancer type; conditions: Homo sapiens; for GI50: read-out: Average LOG10 GI50; for CC50: 48 h, read-out: Average LOG10 LC50
# [5] = system: Colon; experiment: NCI assay, average per cancer type; conditions: Homo sapiens; for CC50: 48 h, read-out: Average LOG10 LC50; for GI50: read-out: Average LOG10 GI50
# [6] = system: CNS; experiment: NCI assay, average per cancer type; conditions: Homo sapiens; for GI50: read-out: Average LOG10 GI50; for CC50: 48 h, read-out: Average LOG10 LC50
# [7] = system: Melanoma; experiment: NCI assay, average per cancer type; conditions: Homo sapiens; for CC50: 48 h, read-out: Average LOG10 LC50; for GI50: read-out: Average LOG10 GI50
# [8] = system: Ovarian; experiment: NCI assay, average per cancer type; conditions: Homo sapiens; for GI50: read-out: Average LOG10 GI50; for CC50: 48 h, read-out: Average LOG10 LC50
# [9] = system: Renal; experiment: NCI assay, average per cancer type; conditions: Homo sapiens; for CC50: 48 h, read-out: Average LOG10 LC50; for GI50: read-out: Average LOG10 GI50
# [10] = system: solid tumors; experiment: NCI assay, mean potency in solid tumors; conditions: for GI50 / CC50: Homo sapiens; for GI50: read-out: Average LOG10 GI50, Mean Potency in solid tumors; for Average LOG10 LC50, Mean Potency in solid tumors: 2880 min; for CC50: 48 h, read-out: Average LOG10 LC50, Mean Potency in solid tumors
molecule,measurement,setting,value
"3-(2-hydroxy)aceto-6-hydroxy-1,2,3,4-tetrahydro-(2-oxygen)naphthacene-5,12-dione and 3-(2-hydroxy)aceto-11-hydroxy-1,2,3,4-tetrahydro-(2-oxygen)naphthacene-5,12-dione [BCH-694]",zone of inhibition,[1]; 10 μg/DISK,54.9 ± 8.6 Zone Units
same,zone of inhibition,[1]; 100 μg/DISK,189.0 ± 8.4 Zone Units
"3-carbomethoxy-6-hydroxy-1,2,3,4-tetrahydro-(2-sulfur)naphthacene-5,12-dione and 3-carbomethoxy-11-hydroxy-1,2,3,4-tetrahydro(2-sulfur)naphthacene-5,12-dione [BCH-693]",zone of inhibition,[1]; 10 μg/DISK,0 Zone Units
same,zone of inhibition,[1]; 100 μg/DISK,76.2 ± 21.5 Zone Units
"COC(=O)C1CC2=C(C(=O)c3c(cc4ccccc4c3O)C2=O)C(O[C@H]2C[C@H](NC(=O)C(F)(F)F)[C@H](O)[C@H](C)O2)O1 (mixture of isomers) [BCH-242, (1'S,1R,3S) and (1'S, 1S,3R)-Methyl[11-hydroxy-1-2',3',6'-trideoxy-3-trifluroacetamido-L-lyxohexopyranose)-5,12-dioxo-3,4,5,12-tetrahydroanthraceno[2,3-c]pyran-3-yl]formate]",CC50,[2],> 100 µM
same,GI50,[2],0.316 µM
same,CC50,[3],6.17 µM
same,GI50,[3],0.977 µM
same,GI50,[4],0.355 µM
same,CC50,[5],2.57 µM
same,GI50,[5],0.316 µM
same,GI50,[6],1.55 µM
same,CC50,[7],3.89 µM
same,GI50,[7],0.437 µM
same,GI50,[8],0.741 µM
same,CC50,[9],6.03 µM
same,GI50,[9],0.955 µM
same,GI50,[10],0.661 µM
same,"Average LOG10 LC50, Mean Potency in solid tumors",[10],-5.32 ± 0.20 log molar
"CCOC(=O)[C@@H]1CC2=C(C(=O)c3c(c(O)c4ccccc4c3OC(C)=O)C2=O)[C@@H](O)O1 (mixture of isomers) [BCH-658, (1S,3S) and (1R,3R) Ethyl[11-acetoxy-1,6-dihydroxy-5,12-dioxo-3,4,5,12-tetrahydroanthraceno (2,3-c)pyran-3-yl]formate]",zone of inhibition,[1]; 10 μg/DISK,0 Zone Units
same,zone of inhibition,[1]; 100 μg/DISK,0 Zone Units
same,CC50,[2],> 100 µM
same,GI50,[2],> 100 µM
same,CC50,[3],> 100 µM
same,GI50,[3],> 100 µM
same,CC50,[4],> 100 µM
same,GI50,[4],> 100 µM
same,CC50,[5],> 100 µM
same,GI50,[5],61.7 µM
same,CC50,[6],> 100 µM
same,GI50,[6],46.8 µM
same,CC50,[7],> 100 µM
same,GI50,[7],> 100 µM
same,CC50,[8],> 100 µM
same,GI50,[8],> 100 µM
same,CC50,[9],> 100 µM
same,GI50,[9],46.8 µM
same,CC50,[10],> 100 µM
same,GI50,[10],51.3 µM
"CCOC(=O)[C@@H]1CC2=C(C(=O)c3cc4ccccc4c(OC(C)=O)c3C2=O)[C@@H](O)O1 (mixture of isomers) [BCH-660, (1S,3S) and (1R,3R)-Ethyl-[6-acetoxy-1-hydroxy-5,12-dioxo-3,4,5,12-tetrahydroanthraceno (2,3-c)pyran-3-yl]formate]",zone of inhibition,[1]; 10 μg/DISK,45.7 ± 21.5 Zone Units
same,zone of inhibition,[1]; 100 μg/DISK,125.0 ± 12.7 Zone Units
same,CC50,[2],> 100 µM
same,GI50,[2],0.316 µM
same,CC50,[3],19.5 µM
same,GI50,[3],0.977 µM
same,CC50,[4],> 100 µM
same,GI50,[4],1 µM
same,CC50,[5],> 100 µM
same,GI50,[5],0.617 µM
same,CC50,[6],15.8 µM
same,GI50,[6],0.955 µM
same,CC50,[7],10.5 µM
same,GI50,[7],0.955 µM
same,CC50,[8],6.61 µM
same,GI50,[8],0.955 µM
same,CC50,[9],7.94 µM
same,GI50,[9],0.912 µM
same,CC50,[10],11.2 µM
same,GI50,[10],0.891 µM
"COC(=O)[C@@H]1CC2=C(C(=O)c3c(c(OC)c4ccccc4c3O)C2=O)[C@@H](O[C@H]2C[C@H](NC(=O)C(F)(F)F)[C@H](O)[C@H](C)O2)O1 (mixture of isomers) [BCH-674, (1'S,1S,3R) and 1'S,1R,3S) Methyl(11-hydroxy-6-methoxy-1-[2',3',6'-trideoxy-3-trifluoroacetamido-4'-hydroxy-L-lyxohexopyranose]-5,12-dioxo-3,4,5,12-tetrahydroanthra-ceno[2,3-c]pyran-3-yl) formate]",CC50,[2],> 100 µM
same,GI50,[2],8.71 µM
same,CC50,[3],69.2 µM
same,GI50,[3],9.33 µM
same,CC50,[4],120 µM
same,GI50,[4],13.2 µM
same,CC50,[5],97.7 µM
same,GI50,[5],13.5 µM
same,CC50,[6],63.1 µM
same,GI50,[6],13.8 µM
same,CC50,[7],89.1 µM
same,GI50,[7],13.2 µM
same,CC50,[8],83.2 µM
same,GI50,[8],15.8 µM
same,CC50,[9],57.5 µM
same,GI50,[9],8.91 µM
same,CC50,[10],81.3 µM
same,GI50,[10],12.3 µM
same,"Average LOG10 LC50, Mean Potency in solid tumors",[10],-4.09 ± 0.11 log molar
"COC(=O)[C@H]1CC2=C(C(=O)c3c(c(OC)c4ccccc4c3O)C2=O)[C@H](O[C@H]2C[C@H](NC(=O)C(F)(F)F)[C@H](O)[C@H](C)O2)O1 (mixture of isomers) [BCH-675, (1'S,1S,3R) and 1'S,1R,3S) Methyl(11-hydroxy-6-methoxy-1-[2',3',6'-trideoxy-3-trifluoroacetamido-4'-hydroxy-L-lyxohexopyranose]-5,12-dioxo-3,4,5,12-tetrahydroanthra-ceno[2,3-c]pyran-3-yl) formate]",zone of inhibition,[1]; 10 μg/DISK,0 Zone Units
same,zone of inhibition,[1]; 100 μg/DISK,46.7 ± 5.3 Zone Units
same,CC50,[2],> 100 µM
same,GI50,[2],2.95 µM
same,CC50,[3],56.2 µM
same,GI50,[3],9.33 µM
same,GI50,[4],7.24 µM
same,CC50,[5],85.1 µM
same,GI50,[5],8.71 µM
same,CC50,[6],61.7 µM
same,GI50,[6],10.7 µM
same,CC50,[7],79.4 µM
same,GI50,[7],5.89 µM
same,CC50,[8],63.1 µM
same,GI50,[8],8.51 µM
same,CC50,[9],56.2 µM
same,GI50,[9],9.12 µM
same,CC50,[10],66.1 µM
same,GI50,[10],8.32 µM
"CCOC(=O)C1CC2=C(CO1)C(=O)c1c(cc3ccccc3c1O)C2=O (stereo not drawn) [BCH-651, Ethyl(6 and 11 hydroxy-5,12-dioxo-3,4,5,12-tetrahydro-anthraceno[2,3-c]pyran-3-yl)]formate]",zone of inhibition,[1]; 10 μg/DISK,0 Zone Units
same,zone of inhibition,[1]; 100 μg/DISK,106.7 ± 21.5 Zone Units
same,CC50,[2],> 100 µM
same,GI50,[2],3.31 µM
same,CC50,[3],50.1 µM
same,GI50,[3],7.76 µM
same,CC50,[4],61.7 µM
same,GI50,[4],2.75 µM
same,CC50,[5],41.7 µM
same,GI50,[5],3.39 µM
same,CC50,[6],64.6 µM
same,GI50,[6],10 µM
same,CC50,[7],34.7 µM
same,GI50,[7],2.75 µM
same,CC50,[8],46.8 µM
same,GI50,[8],5.89 µM
same,CC50,[9],55 µM
same,GI50,[9],10 µM
same,CC50,[10],50.1 µM
same,GI50,[10],5.25 µM
"CCOC(=O)C1CC2=C(CO1)C(=O)c1cc3ccccc3c(O)c1C2=O (stereo not drawn) [BCH-653, Ethyl(6 and 11 hydroxy-5,12-dioxo-3,4,5,12-tetrahydro-anthraceno[2,3-c]pyran-3-yl)]formate]",zone of inhibition,[1]; 100 μg/DISK,76.2 ± 21.5 Zone Units
same,CC50,[2],> 100 µM
same,GI50,[2],15.8 µM
same,CC50,[3],> 100 µM
same,GI50,[3],44.7 µM
same,CC50,[4],> 100 µM
same,GI50,[4],28.8 µM
same,CC50,[5],> 100 µM
same,GI50,[5],35.5 µM
same,CC50,[6],> 100 µM
same,GI50,[6],50.1 µM
same,CC50,[7],> 100 µM
same,GI50,[7],33.1 µM
same,CC50,[8],> 100 µM
same,GI50,[8],38 µM
same,CC50,[9],> 100 µM
same,GI50,[9],57.5 µM
same,CC50,[10],> 100 µM
same,GI50,[10],39.8 µM
"CCOC(=O)C1CC2=C(CO1)C(=O)c1c(c(O)c3ccccc3c1OC(C)=O)C2=O (stereo not drawn) [BCH-654, Ethyl[11-acetoxy-6-hydroxy-5,12-dioxo-3,4,5,12-tetrahydroanthraceno(2,3-c)pyran-3-yl]formate]",zone of inhibition,[1]; 10 μg/DISK,24.4 ± 8.6 Zone Units
same,zone of inhibition,[1]; 100 μg/DISK,153.0 ± 1.4 Zone Units
"CCOC(=O)[C@@H]1CC2=C(C(=O)c3cc4ccccc4c(O)c3C2=O)[C@@H](O[C@H]2C[C@H](NC(=O)C(F)(F)F)[C@H](O)[C@H](C)O2)O1 [BCH-681, (1'S,1R,3S)Ethyl[6-hydroxy-5,12-dioxo-1-(3'-trifuloroacetamido-1-daunosaminyl)-3,4,5,12-tetrahydroanthraceno(2,3-C)pyran-3-yl]formate]",CC50,[2],< 100 µM
same,GI50,[2],2.04 µM
same,CC50,[3],22.9 µM
same,GI50,[3],2.88 µM
same,CC50,[4],6.61 µM
same,GI50,[4],1.7 µM
same,CC50,[5],7.24 µM
same,GI50,[5],1.41 µM
same,CC50,[6],22.4 µM
same,GI50,[6],2.88 µM
same,CC50,[7],5.01 µM
same,GI50,[7],1.12 µM
same,CC50,[8],16.6 µM
same,GI50,[8],2.69 µM
same,CC50,[9],21.9 µM
same,GI50,[9],3.02 µM
same,CC50,[10],12.3 µM
same,GI50,[10],2.09 µM
